{
  "source": "ChEMBL document CHEMBL1129644",
  "about": "“Nucleosides with a twist. Can fixed forms of sugar ring pucker influence biological activity in nucleosides and oligonucleotides?” (J Med Chem, 1996)",
  "key": {"[1]": {"assay": "Compound was tested for cytotoxicity against HSV-1 (herpes simplex type-1) of HFF (human foreskin fibroblasts) cells by cytopathogenic effect (CPE) inhibition assay", "format": "cell-based", "settings": "HFF (human foreskin fibroblast) cells"}, "[2]": {"assay": "Compound was tested for cytotoxicity against HCMV (human cytomegalovirus) of HFF(human foreskin fibroblasts) cells by cytopathogenic effect (CPE) inhibition assay", "format": "cell-based", "settings": "HFF (human foreskin fibroblast) cells"}, "[3]": {"assay": "Compound was tested for cytotoxicity against HSV-2 (herpes simplex type 2) of HFF (human foreskin fibroblasts) cells by cytopathogenic effect (CPE) inhibition assay", "format": "cell-based", "settings": "HFF (human foreskin fibroblast) cells"}, "[4]": {"assay": "(§1) Compound was tested for cytotoxicity against HSV-2 (herpes simplex type-2) of HFF (human foreskin fibroblasts) cells in different experiment", "format": "cell-based", "settings": "HFF (human foreskin fibroblast) cells"}, "[5]": {"assay": "Compound was tested for cytotoxicity against HSV-1 (herpes simplex type-1) of HFF (human foreskin fibroblasts) cells", "format": "cell-based", "settings": "HFF (human foreskin fibroblast) cells"}, "[6]": {"assay": "Compound was tested for cytotoxicity against HSV-1 (herpes simplex type-1) of HFF (human foreskin fibroblasts) cells in different experiment", "format": "cell-based", "settings": "HFF (human foreskin fibroblast) cells"}, "[7]": {"assay": "(§2) Compound was tested for cytotoxicity against HSV-2 (herpes simplex type-2) of HFF (human foreskin fibroblasts) cells", "format": "cell-based", "settings": "HFF (human foreskin fibroblast) cells"}, "[8]": {"assay": "as §2", "settings": "human alphaherpesvirus 2, HFF (human foreskin fibroblast) cells"}, "[9]": {"assay": "as §1", "settings": "human alphaherpesvirus 2, HFF (human foreskin fibroblast) cells"}},
  "data": [
    {"molecule": "Nc1ccn([C@H]2C[C@H](O)[C@@]3(O)CC23)c(=O)n1", "note": "(stereo not given in full)", "values": [
      {"measurement": "CC50", "setting": "[1]", "result": 68, "unit": "µg/mL"},
      {"measurement": "CC50", "setting": "[2]", "result": 8.8, "unit": "µg/mL"},
      {"measurement": "CC50", "setting": "[3]", "result": 96, "unit": "µg/mL"}
    ]},
    {"molecule": "Cc1cn(C2C[C@H](O)[C@@H](O)C2)c(=O)[nH]c1=O", "values": [
      {"measurement": "CC50", "setting": "[4]", "result": "> 10", "unit": "µg/mL"},
      {"measurement": "CC50", "setting": "[5]", "result": "> 10", "unit": "µg/mL"}
    ]},
    {"molecule": "Nc1nc(O)c2ncn([C@H]3C[C@H](O)[C@@]4(O)CC34)c2n1", "note": "(stereo not given in full)", "values": [
      {"measurement": "CC50", "setting": "[1]", "result": "> 100", "unit": "µg/mL"},
      {"measurement": "CC50", "setting": "[2]", "result": 64.3, "unit": "µg/mL"},
      {"measurement": "CC50", "setting": "[3]", "result": "> 100", "unit": "µg/mL"}
    ]},
    {"molecule": "O=c1ccn([C@H]2C[C@H](O)[C@@]3(O)CC23)c(=O)[nH]1", "note": "(stereo not given in full)", "values": [
      {"measurement": "CC50", "setting": "[1]", "result": "> 100", "unit": "µg/mL"},
      {"measurement": "CC50", "setting": "[2]", "result": "> 100", "unit": "µg/mL"},
      {"measurement": "CC50", "setting": "[3]", "result": "> 100", "unit": "µg/mL"}
    ]},
    {"molecule": "Cc1cn([C@H]2C[C@H](O)[C@@]3(O)CC23)c(=O)[nH]c1=O", "note": "(stereo not given in full)", "values": [
      {"measurement": "CC50", "setting": "[4]", "result": "> 20", "unit": "µg/mL"},
      {"measurement": "CC50", "setting": "[1]", "result": "> 100", "unit": "µg/mL"},
      {"measurement": "CC50", "setting": "[6]", "result": "> 20", "unit": "µg/mL"},
      {"measurement": "CC50", "setting": "[2]", "result": 63.7, "unit": "µg/mL"},
      {"measurement": "CC50", "setting": "[7]", "result": "> 20", "unit": "µg/mL"},
      {"measurement": "CC50", "setting": "[3]", "result": "> 100", "unit": "µg/mL"},
      {"measurement": "CC50", "setting": "[5]", "result": "> 20", "unit": "µg/mL"}
    ]},
    {"molecule": "Nc1ncnc2c1ncn2[C@H]1C[C@H](O)[C@@]2(O)CC12", "note": "(stereo not given in full)", "values": [
      {"measurement": "CC50", "setting": "[1]", "result": "> 100", "unit": "µg/mL"},
      {"measurement": "CC50", "setting": "[2]", "result": "> 100", "unit": "µg/mL"},
      {"measurement": "CC50", "setting": "[3]", "result": "> 100", "unit": "µg/mL"}
    ]},
    {"molecule": "Cc1cn([C@@]23CC2[C@H](O)[C@@H](O)C3)c(=O)[nH]c1=O", "note": "(stereo not given in full)", "values": [
      {"measurement": "CC50", "setting": "[6]", "result": "> 20", "unit": "µg/mL"},
      {"measurement": "CC50", "setting": "[8]", "result": "> 50", "unit": "µg/mL"},
      {"measurement": "CC50", "setting": "[5]", "result": "> 50", "unit": "µg/mL"},
      {"measurement": "CC50", "setting": "[9]", "result": "> 20", "unit": "µg/mL"}
    ]}
  ]
}
